# Experimental data taken from patent US11643411B2 (priority 2015, dated 2023).
# Counter-ions that a name gives are not always drawn. Like-named read-outs stand apart in the source and are kept apart here. Marks after values point to notes of the source that are not given here.
# Experiments:
# [1] = target: T1, human opioid μ receptor (Homo sapiens, UniProt P35372); assay: Opioid receptor function test (Lance Ultra cAMP Kit), μ receptor; assay type: cell-based
# T1 construct: host or cells: CHO cells
# T1 sequence (P35372 whole entry): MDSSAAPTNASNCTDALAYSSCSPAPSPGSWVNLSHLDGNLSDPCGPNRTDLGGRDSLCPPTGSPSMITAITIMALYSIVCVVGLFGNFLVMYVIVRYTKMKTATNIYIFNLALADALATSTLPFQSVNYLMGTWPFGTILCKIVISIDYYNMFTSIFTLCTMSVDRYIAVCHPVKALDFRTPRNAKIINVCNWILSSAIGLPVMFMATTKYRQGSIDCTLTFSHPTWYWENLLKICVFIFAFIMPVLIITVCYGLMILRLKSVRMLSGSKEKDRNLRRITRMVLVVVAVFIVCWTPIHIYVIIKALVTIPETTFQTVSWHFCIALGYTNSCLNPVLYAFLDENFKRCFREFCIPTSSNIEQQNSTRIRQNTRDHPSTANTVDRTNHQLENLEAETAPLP
# [2] = target: T2, hERG channel (Homo sapiens, UniProt Q12809); assay: hERG potassium channel inhibition test (automatic patch clamp); assay type: cell-based; conditions: 10 μM, hERG channel-stably expressing CHO cells, tail current
# T2 construct: host or cells: CHO cells
# T2 sequence (Q12809 whole entry): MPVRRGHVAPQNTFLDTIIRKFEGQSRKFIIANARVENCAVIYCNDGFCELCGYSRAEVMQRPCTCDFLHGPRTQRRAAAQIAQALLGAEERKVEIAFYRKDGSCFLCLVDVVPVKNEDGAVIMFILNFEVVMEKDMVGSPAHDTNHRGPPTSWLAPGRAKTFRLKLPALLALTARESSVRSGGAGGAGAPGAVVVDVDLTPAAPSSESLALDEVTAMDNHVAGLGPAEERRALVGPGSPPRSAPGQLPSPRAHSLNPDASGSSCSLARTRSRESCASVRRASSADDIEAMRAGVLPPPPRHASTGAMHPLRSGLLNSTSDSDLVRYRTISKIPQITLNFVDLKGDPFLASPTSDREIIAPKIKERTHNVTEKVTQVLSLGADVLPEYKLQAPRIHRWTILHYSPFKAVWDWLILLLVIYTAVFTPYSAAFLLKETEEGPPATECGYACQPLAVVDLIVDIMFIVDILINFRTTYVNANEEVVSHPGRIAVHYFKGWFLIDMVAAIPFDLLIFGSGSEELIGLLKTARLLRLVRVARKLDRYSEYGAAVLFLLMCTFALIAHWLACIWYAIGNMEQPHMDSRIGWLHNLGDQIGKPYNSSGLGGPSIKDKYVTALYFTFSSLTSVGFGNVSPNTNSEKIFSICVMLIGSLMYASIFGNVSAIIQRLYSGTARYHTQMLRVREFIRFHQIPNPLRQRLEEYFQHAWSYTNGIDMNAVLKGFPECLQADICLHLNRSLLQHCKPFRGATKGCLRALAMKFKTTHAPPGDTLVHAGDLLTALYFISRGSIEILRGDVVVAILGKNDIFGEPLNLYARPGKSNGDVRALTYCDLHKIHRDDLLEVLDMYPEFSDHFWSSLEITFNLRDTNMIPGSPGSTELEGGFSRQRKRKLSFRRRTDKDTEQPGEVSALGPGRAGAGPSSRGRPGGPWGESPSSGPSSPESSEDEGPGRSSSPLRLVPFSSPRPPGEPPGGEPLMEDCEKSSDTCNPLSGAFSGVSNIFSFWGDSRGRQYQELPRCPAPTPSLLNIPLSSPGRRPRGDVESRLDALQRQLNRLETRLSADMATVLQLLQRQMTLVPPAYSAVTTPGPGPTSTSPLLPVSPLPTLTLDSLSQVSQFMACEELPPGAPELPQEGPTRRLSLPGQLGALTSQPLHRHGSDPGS
# Experimental: The test was performed with Port-a-Patch automatic patch clump apparatus (Nanion Technologies) using hERG channel-stably expressing CHO cells (purchased from Channelopathy Foundation). The membrane potential of the cells was maintained at −80 mV, then there were applied a depolarization pulse at +20 mV for 1.5 seconds, and a following test pulse at −50 mV for 1.5 seconds at a frequency of 1 time per 10 seconds, and the hERG current was confirmed as a tail current induced by the test pulse. The test compound was dissolved in an extracellular fluid (137 mM NaCl, 4 mM KCl, 1.8 mM CaCl2, 1 mM MgCl2, 10 mM D(+)-glucose, 10 mM HEPES, pH 7.4), and the solution was refluxed at room temperature for 5 minutes. The inhibition ratio was obtained from the ratio of the tail current value observed after the compound was applied based on the tail current value observed before the compound was applied, which was taken as 100%.
# [3] = system: C57BL/6N male mice; assay: Mouse elevated plus maze test; assay type: in vivo; conditions: subcutaneous, dose not stated (FIGS. 3 to 5)
# Experimental: For the test, 5 to 6 weeks old C57BL/6N male mice were used. On a plus maze apparatus consisting of a wall-less running route (open arm, width 6 cm, length 30 cm) and a running route with a wall (closed arm, width 6 cm, length 30 cm, height of wall 15 cm), and having a height of 40 cm, a mouse was put so as to be directed to the running route with a wall, and allowed to spontaneously enter into the plus maze. Each test substance was dissolved in saline or 0.005 N HCl in saline, and subcutaneously administered on the back 30 minutes before the start of the test. At the time of the start of the test, video recording with a video camera was started, the time at which the mouse entered into the plus maze is considered to be the start of the test, and exploratory behavior was recorded for 5 minutes. On the basis of the video image, staying time in the running routes were determined, and wall-less running route staying time ratio (%) was calculated.
# [4] = target: T3, human opioid κ receptor (Homo sapiens, UniProt P41145); assay: cell-based
# T3 construct: host or cells: CHO cells
# T3 sequence (P41145 whole entry): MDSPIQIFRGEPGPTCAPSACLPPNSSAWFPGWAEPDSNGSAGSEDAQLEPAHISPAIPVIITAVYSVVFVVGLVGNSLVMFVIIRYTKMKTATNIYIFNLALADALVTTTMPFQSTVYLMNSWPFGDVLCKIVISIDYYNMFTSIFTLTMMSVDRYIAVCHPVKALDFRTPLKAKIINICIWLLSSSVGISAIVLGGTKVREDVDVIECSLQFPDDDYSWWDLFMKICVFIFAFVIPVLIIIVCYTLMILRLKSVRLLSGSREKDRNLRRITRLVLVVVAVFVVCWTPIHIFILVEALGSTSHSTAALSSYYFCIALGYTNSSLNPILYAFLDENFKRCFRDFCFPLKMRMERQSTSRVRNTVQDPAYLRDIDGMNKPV
# [5] = system: OBX rats; assay: Hyperemotional reaction inhibition test using olfactory bulbectomized (OBX) rat; assay type: in vivo
# Experimental: According to the method of Saitoh et al. (Saitoh A, Yamada M, Yamada M, Takahashi K, Yamaguchi K, Murasawa H, Nakatani A, Tatsumi Y, Hirose N, and Kamei J: Antidepressant-like effects of the delta-opioid receptor agonist SNC80 ((+)-4-[(alphaR)-alpha-[(2S,5R)-2,5-dimethyl-4-(2-propenyl)-1-piperazinyl]-(3-methoxyphenyl)methyl]-N,N-diethylbenzamide) in an olfactory bulbectomized rat model, Brain Res., 2008, 1208160-169), OBX rats were prepared by extracting the rat olfactory bulbs, and then breeding the rats in an isolated circumstance. Hyperemotional reaction was evaluated on the day 14 after the surgical operation and before the division into groups, and 2 hours after the administration on the days 1, 4, 7, 10, and 14 of the administration period according to the hyperemotional reaction evaluation criteria prepared by Gomita et al. (Gomita et al., Behavioral pharmacological and electroencephalographical studies of 7-chloro-1-methyl-5-phenyl-1H-1,5-benzodiazepine-2,4-(3H,5H:)-dione (Clobazam), Folia Pharmacologica Japonica, 82, 267 (1983)). The drug was subcutaneously administered once a day continuously over 14 days. As a positive control drug, fluoxetine, which is a selective serotonin reuptake inhibitor (SSRI), was used. As the solvent, a 1% cyclodextrin (CD) was used.
# [6] = system: SD male rats; assay: Rat cerebral infarction-induced overactive bladder model (cystometry); assay type: in vivo
# Experimental: A transient middle cerebral artery occlusion model was prepared by using 8 weeks old SD male rats under isoflurane inhalation anesthesia. On the next day, the cervix was slightly cut open again under the isoflurane inhalation anesthesia, and a catheter for administration was fixed in the jugular vein, and led to the back. A cystometry operation was also performed, and the other end of a cannula inserted into the bladder was led to the back, and connected to a cannula swivel.
# On the day 4 after the cerebral ischemia operation, cystometry was performed under no anesthesia and with no restraint. Intravesical pressure was measured for the stable period, then a medium was intravenously administered, and the value of the pressure was measured over about 30 minutes as a value before test substance administration. Then, the test substance was cumulatively and intravenously administered from the lowest dose at intervals of about 30 minutes, and the value was measured for about 30 minutes after each administration. For the rats determined to show pollakiuria (urination interval was 10 minutes or shorter) in the measurement before the administration, static intravesical pressure, pressure at the time of urination, urination interval, and single urination amount were measured at each time point.
# [7] = read-out: μ receptor Emax, starred: reaction rate at the maximum concentration (reference value)
# [8] = read-out: κ receptor Emax, starred: reaction rate at the maximum concentration (reference value)
structure (smiles),measurement,setting,value
"O=C(c1cccc[n+]1[O-])N1C[C@H]2C[C@@]34CC[C@@H]1[C@@H]2[C@@]31CCN(CC2CC2)[C@@H]4Cc2ccc(O)cc21 [Example 1, 2-((1S,3aR,5aS,6R,11bR,11cS)-14-(cyclopropylmethyl)-10-hydroxy-2,3,3a,4,5,6,7,11c-octahydro-1H-6,11b-(epiminoethano)-1,5a-methanonaphtho[1,2-e]indole-3-carbonyl)pyridine 1-oxide]",Emax,[1]; [7],8.3%
same,hERG channel inhibitory action,[2],<50%
"O=C(c1ccc[nH]c1=O)N1C[C@H]2C[C@@]34CC[C@@H]1[C@@H]2[C@@]31CCN(CC2CC2)[C@@H]4Cc2ccc(O)cc21 [Example 3, 3-((1S,3aR,5aS,6R,11bR,11cS)-14-(cyclopropylmethyl)-10-hydroxy-2,3,3a,4,5,6,7,11c-octahydro-1H-6,11b-(epiminoethano)-1,5a-methanonaphtho[1,2-e]indole-3-carbonyl)pyridin-2(1H)-one]",hERG channel inhibitory action,[2],<50%
same,wall-less running route staying time ratio,[3],showed a tendency of increasing
"O=C(c1ccc[n+]([O-])c1)N1C[C@H]2C[C@@]34CC[C@@H]1[C@@H]2[C@@]31CCN(CC2CC2)[C@@H]4Cc2ccc(O)cc21 [Example 4, 3-((1S,3aR,5aS,6R,11bR,11cS)-14-(cyclopropylmethyl)-10-hydroxy-2,3,3a,4,5,6,7,11c-octahydro-1H-6,11b-(epiminoethano)-1,5a-methanonaphtho[1,2-e]indole-3-carbonyl)pyridine 1-oxide]",Emax,[1]; [7],5.5%
"Cn1cccc(C(=O)N2C[C@H]3C[C@@]45CC[C@@H]2[C@@H]3[C@@]42CCN(CC3CC3)[C@@H]5Cc3ccc(O)cc32)c1=O [Example 6, 3-((1S,3aR,5aS,6R,11bR,11cS)-14-(cyclopropylmethyl)-10-hydroxy-2,3,3a,4,5,6,7,11c-octahydro-1H-6,11b-(epiminoethano)-1,5a-methanonaphtho[1,2-e]indole-3-carbonyl)-1-methylpyridin-2(1H)-one]",Emax,[4]; [8],3.2%
"O=C(c1cccc(=O)[nH]1)N1C[C@H]2C[C@@]34CC[C@@H]1[C@@H]2[C@@]31CCN(CC2CC2)[C@@H]4Cc2ccc(O)cc21 [Example 7, 6-((1S,3aR,5aS,6R,11bR,11cS)-14-(cyclopropylmethyl)-10-hydroxy-2,3,3a,4,5,6,7,11c-octahydro-1H-6,11b-(epiminoethano)-1,5a-methanonaphtho[1,2-e]indole-3-carbonyl)pyridin-2(1H)-one]",hyperemotional reactions compared with the sham surgery group,"[5]; 0.1 mg/kg s.c. once a day, on the day 7 of the administration period",restored the condition even to a level comparable to that of the rats of the sham surgery group
same,hyperemotional reactions compared with the sham surgery group,"[5]; 1 mg/kg s.c. once a day, on the day 4 of the administration period",restored the condition even to a level comparable to that of the rats of the sham surgery group
same,hERG channel inhibitory action,[2],<50%
same,single urination amount (in words),[6]; 0.01 and 0.1 mg/kg i.v.,dose-dependently increasing tendency
same,urination interval (in words),[6]; 0.01 and 0.1 mg/kg i.v.,dose-dependently increasing tendency
same,pressure at the time of urination (in words),[6]; at all the doses,did not affect
same,static intravesical pressure (in words),[6]; at all the doses,did not affect
same,Emax,[4]; [8],-0.9%
"Cn1cc(C(=O)N2C[C@H]3C[C@@]45CC[C@@H]2[C@@H]3[C@@]42CCN(CC3CC3)[C@@H]5Cc3ccc(O)cc32)ccc1=O [Example 9, 5-((1S,3aR,5aS,6R,11bR,11cS)-14-(cyclopropylmethyl)-10-hydroxy-2,3,3a,4,5,6,7,11c-octahydro-1H-6,11b-(epiminoethano)-1,5a-methanonaphtho[1,2-e]indole-3-carbonyl)-1-methylpyridin-2(1H)-one]",Emax,"[1]; ratio to maximum reaction of control drug DAMGO taken as 100%, read-out: μ receptor Emax",16%
same,hERG channel inhibitory action,[2],<50%
same,wall-less running route staying time ratio,[3],showed a tendency of increasing
"Cn1c(C(=O)N2C[C@H]3C[C@@]45CC[C@@H]2[C@@H]3[C@@]42CCN(CC3CC3)[C@@H]5Cc3ccc(O)cc32)cccc1=O [Example 10, 6-((1S,3aR,5aS,6R,11bR,11cS)-14-(cyclopropylmethyl)-10-hydroxy-2,3,3a,4,5,6,7,11c-octahydro-1H-6,11b-(epiminoethano)-1,5a-methanonaphtho[1,2-e]indole-3-carbonyl)-1-methylpyridin-2(1H)-one]",Emax,[1]; [7],6%
same,hERG channel inhibitory action,[2],<50%
same,wall-less running route staying time ratio,[3],showed a tendency of increasing
same,Emax,[4]; [8],-0.7%
"O=C(c1cc[nH]c(=O)c1)N1C[C@H]2C[C@@]34CC[C@@H]1[C@@H]2[C@@]31CCN(CC2CC2)[C@@H]4Cc2ccc(O)cc21 [Example 11, 4-((1S,3aR,5aS,6R,11bR,11cS)-14-(cyclopropylmethyl)-10-hydroxy-2,3,3a,4,5,6,7,11c-octahydro-1H-6,11b-(epiminoethano)-1,5a-methanonaphtho[1,2-e]indole-3-carbonyl)pyridin-2(1H)-one]",Emax,[4]; [8],-2.5%
"O=C(c1cc(=O)cc[nH]1)N1C[C@H]2C[C@@]34CC[C@@H]1[C@@H]2[C@@]31CCN(CC2CC2)[C@@H]4Cc2ccc(O)cc21 [Example 14, 2-((1S,3aR,5aS,6R,11bR,11cS)-14-(cyclopropylmethyl)-10-hydroxy-2,3,3a,4,5,6,7,11c-octahydro-1H-6,11b-(epiminoethano)-1,5a-methanonaphtho[1,2-e]indole-3-carbonyl)pyridin-4(1H)-one]",Emax,[4]; [8],6.7%
"O=C(c1cc(=O)cco1)N1C[C@H]2C[C@@]34CC[C@@H]1[C@@H]2[C@@]31CCN(CC2CC2)[C@@H]4Cc2ccc(O)cc21 [Example 19, 2-((1S,3aR,5aS,6R,11bR,11cS)-14-(cyclopropylmethyl)-10-hydroxy-2,3,3a,4,5,6,7,11c-octahydro-1H-6,11b-(epiminoethano)-1,5a-methanonaphtho[1,2-e]indole-3-carbonyl)-4H-pyran-4-one]",Emax,[4]; [8],0.6%
"CCn1cc(C(=O)N2C[C@H]3C[C@@]45CC[C@@H]2[C@@H]3[C@@]42CCN(CC3CC3)[C@@H]5Cc3ccc(O)cc32)ccc1=O [Example 28, 5-((1S,3aR,5aS,6R,11bR,11cS)-14-(cyclopropylmethyl)-10-hydroxy-2,3,3a,4,5,6,7,11c-octahydro-1H-6,11b-(epiminoethano)-1,5a-methanonaphtho[1,2-e]indole-3-carbonyl)-1-ethylpyridin-2(1H)-one]",Emax,[4]; read-out: κ receptor Emax,13%
"Cn1cccc(C(=O)N2C[C@H]3C[C@@]45CC[C@@H]2[C@@H]3[C@@]42CCN(CC3CC3)[C@@H]5Cc3ccc(O)cc32)c1=O [Example 31, 3-((1S,3aR,5aS,6R,11bR,11cS)-14-(cyclopropylmethyl)-10-hydroxy-2,3,3a,4,5,6,7,11c-octahydro-1H-6,11b-(epiminoethano)-1,5a-methanonaphtho[1,2-e]indole-3-carbonyl)-1-methylpyridin-2(1H)-one hydrochloride]",Emax,"[4]; maximum reaction not reached, at maximum concentration (10 μM), U-69593 = 100%",3.2* %
